Test results as given in US20240099214A1, “PLANT DEFENCE GENE EXPRESSION” (UPL Corporation Limited, priority 2021, published 2024).

How the values were obtained:
[1] = tested on: Avr/Cf9 rapidly elicited protein 75 (gene 5, Solyc11g010250.1); assay: qRT-PCR expression of gene 5 in tomato leaves; assay type: in vivo, Tomato ecotype corbarino; design: key: relative expression normalized to a-tubulin housekeeping gene
Method: (§1) Tomato ecotype “corbarino” reported to be susceptible to TSWV infection was used in the experiment. Plants were grown in pots in a climatic chamber with a photoperiod of 16/8 hour at 25° C.
(§2) The viral strain (TSWV PV PV-0393) was utilized in the experiment. The virus was mechanically inoculated and propagated on tomato “corbarino”. The inoculum was prepared in an ice-cooled mortar grounding 1 gr of infected tomato tissue in 10 ml of Na-phosphate buffer 0.01M. The fresh prepared inoculum was stored in ice before use. Tomato plants at BBCH16 were dusted with Carborundum 600 mesh and selected leaves were rubbed with some droplets of inoculum. After 5 min. plants were sprayed with sterile water to remove the excess of inoculum and preserve the cell turgor.
(§3) Four treatments were compared: i) Mock inoculated; ii) TSWV; iii) 0.25% Laminarin; iv) 0.25% Laminarin+TSWV. In the last treatment the virus was inoculated 24 hrs after the laminarin application.
(§4) Total RNA was extracted from systemic infected tomato leaves by using the Quick-RNA Plant Kit (Zymo Research) following the manufacturer instructions. The extractions were carried out using three plants after 12 h, 24 h, 48 h, 72 h, 7 days after inoculation. Leaves were instantly frozen in liquid nitrogen after cutting to avoid any deterioration of the sample as well as any defense reaction. The RNA concentration was quantified by measuring the absorbance at 260 nm using a Nanodrop 2000 (Thermofisher). The purity of all of the RNA samples was assessed at an absorbance ratio of OD260/280 and OD260/230, while its structural integrity was checked by agarose gel electrophoresis. Only high-quality RNA with OD 260/280 and OD 260/230>2 was used for subsequent steps. Single-stranded cDNA was synthesized from 1 μg of total RNA using an iScript™ Select cDNA Synthesis Kit and random hexamers as primers (Bio-Rad, Milan, Italy), according to the manufacturer's instructions. Three biological replicates were created from the 3 leaves collected to test 15 genes. Alpha tubulin was used as reference gene.
(§5) qPCR reactions were performed with BioRad (Applied Biosystems, Foster City, CA, USA) using SYBR R Green. Each reaction was performed in 20 μl containing 10 μl of 2× Power SYBR Green PCR Master Mix (Life Technologies), 0.2-0.3 μM primers and cDNA samples diluted 1:20. Each qPCR reaction was performed in triplicate. Reactions were run using the cycling parameter described previously (Reid et al., 2006) and the qPCR data were analyzed by the Ct method (Pfaffl, 2001). In order to analyze the qPCR data, a-tubulin gene was used as housekeeping to determine the relative expression level of the other genes analyzed in this work. For the determination of qPCR efficiency of each primer pairs, a standard curve was performed using the following cDNA dilutions: 1:4, 1:16, 1:64; 1:256 and 1:1024. Every measurement was made in triplicate. The corresponding qPCR efficiencies (E) were calculated for every primer pair with the software 7300 System SDS software (Applied Biosystems, Foster City, CA, USA) according to the equation E=(10−1/slope−1)×100 (Rutledge and Stewart, 2008).
(§6) The significance of the differences between the gene expressions levels were compared by one-way ANOVA (p=0.01) and the means were separated by Tukey post-hoc test using SPSS ver.26 ([…]).

[2] = tested on: E3 Ubiquitin-protein ligase march3 (gene 2, Solyc01g079530.2); assay: qRT-PCR expression of gene 2 in tomato leaves; assay type: in vivo, Tomato ecotype corbarino; design: key: relative expression normalized to a-tubulin housekeeping gene
Method: as §1, §2, §3, §4, §5, §6

laminarin was tested, and the RQ1 ([1]; 12 hr, Laminarin + virus) was 0.8046, the RQ2 ([1]; 12 hr, Laminarin + virus) was 10.612 and the RQ3 ([1]; 12 hr, Laminarin + virus) was 11.537. It also gave an RQ mean ([1]; 12 hr, Laminarin + virus) of 10.065, an RQ1 ([1]; 12 hr, Laminarin alone) of 0.7901 and an RQ2 ([1]; 12 hr, Laminarin alone) of 11.285. It also gave an RQ3 ([1]; 12 hr, Laminarin alone) of 0.9408, an RQ mean ([1]; 12 hr, Laminarin alone) of 0.9531 and an RQ1 ([1]; 24 hr, Laminarin + virus) of 10.601. It also gave an RQ2 ([1]; 24 hr, Laminarin + virus) of 12.023, an RQ3 ([1]; 24 hr, Laminarin + virus) of 0.9700 and an RQ mean ([1]; 24 hr, Laminarin + virus) of 10.775. It also gave an RQ1 ([1]; 24 hr, Laminarin alone) of 11.135, an RQ2 ([1]; 24 hr, Laminarin alone) of 12.189 and an RQ3 ([1]; 24 hr, Laminarin alone) of 0.9994. For the same substance, the RQ mean ([1]; 24 hr, Laminarin alone) was 11.106, the RQ1 ([1]; 48 hr, Laminarin + virus) was 0.8610 and the RQ2 ([1]; 48 hr, Laminarin + virus) was 13.586. For the same substance, the RQ3 ([1]; 48 hr, Laminarin + virus) was 10.405, the RQ mean ([1]; 48 hr, Laminarin + virus) was 10.867 and the RQ1 ([1]; 48 hr, Laminarin alone) was 0.9204. It also gave an RQ2 ([1]; 48 hr, Laminarin alone) of 12.321, an RQ3 ([1]; 48 hr, Laminarin alone) of 10.531 and an RQ mean ([1]; 48 hr, Laminarin alone) of 10.685. It also gave an RQ1 ([1]; 72 hr, Laminarin + virus) of 17.401, an RQ2 ([1]; 72 hr, Laminarin + virus) of 30.624 and an RQ3 ([1]; 72 hr, Laminarin + virus) of 25.095. For the same substance, the RQ mean ([1]; 72 hr, Laminarin + virus) was 24.373, the RQ1 ([1]; 72 hr, Laminarin alone) was 22.196 and the RQ2 ([1]; 72 hr, Laminarin alone) was 23.867. It also gave an RQ3 ([1]; 72 hr, Laminarin alone) of 23.473, an RQ mean ([1]; 72 hr, Laminarin alone) of 23.179 and an RQ1 ([2]; 12 hr, Laminarin + virus) of 13.056. For the same substance, the RQ2 ([2]; 12 hr, Laminarin + virus) was 23.403, the RQ3 ([2]; 12 hr, Laminarin + virus) was 12.079 and the RQ mean ([2]; 12 hr, Laminarin + virus) was 16.179. It also gave an RQ1 ([2]; 12 hr, Laminarin alone) of 13.140, an RQ2 ([2]; 12 hr, Laminarin alone) of 19.586 and an RQ3 ([2]; 12 hr, Laminarin alone) of 10.706. It also gave an RQ mean ([2]; 12 hr, Laminarin alone) of 14.477, an RQ1 ([2]; 24 hr, Laminarin + virus) of 11.700 and an RQ2 ([2]; 24 hr, Laminarin + virus) of 13.596. For the same substance, the RQ3 ([2]; 24 hr, Laminarin + virus) was 12.341, the RQ mean ([2]; 24 hr, Laminarin + virus) was 12.546 and the RQ1 ([2]; 24 hr, Laminarin alone) was 13.152. The RQ2 ([2]; 24 hr, Laminarin alone) was 13.329, the RQ3 ([2]; 24 hr, Laminarin alone) was 14.033 and the RQ mean ([2]; 24 hr, Laminarin alone) was 13.505. It also gave an RQ1 ([2]; 48 hr, Laminarin + virus) of 24.083, an RQ2 ([2]; 48 hr, Laminarin + virus) of 18.519 and an RQ3 ([2]; 48 hr, Laminarin + virus) of 21.352. For the same substance, the RQ mean ([2]; 48 hr, Laminarin + virus) was 21.318, the RQ1 ([2]; 48 hr, Laminarin alone) was 27.467 and the RQ2 ([2]; 48 hr, Laminarin alone) was 17.321. The RQ3 ([2]; 48 hr, Laminarin alone) was 23.298, the RQ mean ([2]; 48 hr, Laminarin alone) was 22.695 and the RQ1 ([2]; 72 hr, Laminarin + virus) was 28.726. For the same substance, the RQ2 ([2]; 72 hr, Laminarin + virus) was 29.558, the RQ3 ([2]; 72 hr, Laminarin + virus) was 37.336 and the RQ mean ([2]; 72 hr, Laminarin + virus) was 31.873. It also gave an RQ1 ([2]; 72 hr, Laminarin alone) of 29.447, an RQ2 ([2]; 72 hr, Laminarin alone) of 23.000 and an RQ3 ([2]; 72 hr, Laminarin alone) of 53.007. For the same substance, the RQ mean ([2]; 72 hr, Laminarin alone) was 35.151.
